One data set deals with SH-SY5Y cells. The experiment in a line: Apoptosis induction (Hoechst staining, Annexin-V binding) in SH-SY5Y cells. The class given is cell-based, human. The note with it: for Apoptotic morphology: 72 hours treatment, Hoechst staining and Annexin-V binding; for EC50: Homo sapiens, 72 hrs exposure, Hoechst staining, read-out: effective dose at which 50% of cells were apoptotic (ED50). The method, then: (§1) The Human neuroblastoma (SH-SY5Y) and B-cell leukemia (Jurkat) cell lines were purchased from ATCC (Manassas, Va.). Cells were maintained and grown at 37° C., 95% humidity and 5% CO2. Jurkat cells were grown with RPMI-1640 media (Sigma-Aldrich, Oakville, ON, Canada) supplemented with 10% fetal bovine serum (FBS) and 10 mg/ml Gentamycin (Gibco BRL, Mississauga, ON, Canada). SH-SY5Y cells were grown with Dulbecco's Modified Eagles Medium (DMEM) HAM F12 (Sigma-Aldrich), supplemented with 2 mM L-Glutamine, 10 mg/ml Gentamycin, and 10% FBS. Normal Human Fibroblasts (NHFs) obtained from Coriell Institute for Medical Research (New Jersey, USA) were cultured in Earle's Minimum Essential Medium (MEME) (Sigma Chemical Company, Mississauga, Ontario, Canada) completed with 15% fetal bovine serum, 2 mM L-Glutamine, 10 mg/ml Gentamycin, 1.5 g/l sodium bicarbonate, 1% vitamins, and essential (2%) and non-essential amino acids (1%) (Gibco BRL, VWR, Mississauga, ON, Canada).
(§2) Nuclear morphology was visualized using a final concentration of 10 μM of Hoechst 33342 dye (Molecular Probes, Eugene, Oreg., USA). Phosphatidyl serine flipping, (an apoptotic biochemical marker) was visualized with Annexin-V-FITC binding assay as per manufacturer's protocol (Molecular Probes, Eugene Oreg., USA). […] Apoptotic cells were expressed as a percentage of the total number of cells counted. Standard error was calculated from at least 3 separate experiments.

Data set [1] concerns B-cell leukemia (Jurkat) cell line. The experiment in a line: MTT assay, leukemia Jurkat. The note with it: Homo sapiens, read-out: Inhibitory Activities: IC50, leukemia Jurkat. Format: cell-based. As to the method: as §1
(§3) To evaluate the cytotoxic effects of the C-1 derivatives of 7-deoxypancratistatin, mitochondrial dehydrogenase activities were measured. Jurkat and SH-SY5Y cells were grown and treated for 24, 48, and 72 hrs. Cells were treated with concentrations ranging from 0.25 to 10 μM of each derivative dissolved in DMSO Similarly, ncPBMCs and NHFs were treated to assess the effects of the C-1 derivatives on non-cancerous cells.
Background: Tetrazolium assays rely on reduction of a dye to a coloured formazan, in cell work by metabolically active cells.

The test system of data set [2] is Human neuroblastoma (SH-SY5Y) cell line. The experiment in a line: MTT assay, neuroblastoma SH-SY5Y. The class given is cell-based. The note with it: read-out: Inhibitory Activities: IC50, neuroblastoma Shsy5y. As to the method: as §1, §3
Data set [3] concerns normal human fibroblasts (NHFs). As to the kind of experiment: Apoptosis induction (Hoechst staining) in normal human fibroblasts. The class given is cell-based. As to the method: as §1
To evaluate the cytotoxic effects of the C-1 derivatives of 7-deoxypancratistatin, mitochondrial dehydrogenase activities were measured. […]
Nuclear morphology was visualized using a final concentration of 10 μM of Hoechst 33342 dye (Molecular Probes, Eugene, Oreg., USA). […] Apoptotic cells were expressed as a percentage of the total number of cells counted. Standard error was calculated from at least 3 separate experiments.

The test system of data set [4] is Human prostate carcinoma cells DU-145. The experiment in a line: MTT assay, prostate DU-145. The note with it: 48 hrs, read-out: Inhibitory Activities: IC50, prostate DU-145. The class given is cell-based. As to the method:
(§4) Human non-small cell lung cancer line NCI-H460 (ATCC # HTB-177) and human pancreatic adenocarcinoma cancer cell line BxPC-3 (ATCC # CRL-1687) were cultured in RPMI-1640 medium supplemented with 10% fetal bovine serum (FBS) (Gibco, Carlsbad, Calif.), 100 mg/L penicillin G and 100 mg/L streptomycin and (Cellgro, Manassas, Va.). Human prostate carcinoma cells DU-145 (ATCC # HTB-81) were cultured in Dulbecco's modified Eagle Medium (Cellgro) supplemented with 10% FBS, 100 mg/L penicillin G and 100 mg/L streptomycin. Human mammary carcinoma cells MCF-7 (ATCC # HTB-22) were cultured using Dulbecco's modified Eagle Medium supplemented with 10% FBS, 100 mg/L penicillin G, 100 mg/L streptomycin, 1.0 mM Glutamax and 1.0 mM sodium pyruvate, (Gibco).
(§5) In addition, the BxPC-3, […], DU-145 and MCF-7 lines were assessed by seeding 4×10^3 cells per well into microplates. The cells were grown for 24 hrs before treatment at concentrations ranging from 0.01 to 10 μM and incubated for 48 hrs. MTT reagent (5 mg/mL, MP Biomedical, Solon, Ohio) was added to each well and incubated further for 2 hrs. The resulting formazan crystals were dissolved in DMSO and the OD was determined at a wavelength of 490 nm. The experiments were repeated at least twice for each compound per cell line. Cells treated with 0.1% DMSO were used as a control.

For data set [5], the system named is non-cancerous peripheral blood mononuclear cells (ncPBMC). The experiment in a line: Apoptosis induction (Hoechst staining) in non-cancerous peripheral blood mononuclear cells. Format: cell-based, human. Conditions: peripheral blood mononuclear cells from healthy volunteers.
Source text: Peripheral blood was obtained from healthy non-smoking volunteers aged 25-50 years upon written and informed consent (University of Windsor REB #04-147). Whole blood samples were collected in BD Vacutainer™ Cell Preparation Tube and mononuclear cells were separated by density gradient centrifugation. The isolated cells were maintained in RPMI 1640 media supplemented and maintained as was the Jurkat culture.
as §3, §2

Data set [6] deals with Human non-small cell lung cancer line NCI-H460. As to the kind of experiment: MTT assay, lung-NSC NCI-H460. The class given is cell-based. Conditions: 48 hrs, read-out: Inhibitory Activities: IC50, lung-NSC NCl-H460. The method, then: as §4, §5
For another data set, the system named is Jurkat cells. The experiment in a line: Apoptosis induction (Hoechst staining, Annexin-V binding) in Jurkat cells. The class given is cell-based, human. The note with it: for Apoptotic morphology: 72 hours treatment, Hoechst staining and Annexin-V binding; for EC50: Homo sapiens, 72 hrs exposure, Hoechst staining, read-out: effective dose at which 50% of cells were apoptotic (ED50). The method, then: as §1, §2

Data set [7] deals with Human mammary carcinoma cells MCF-7. The experiment in a line: MTT assay, breast MCF-7. The note with it: MCF7, 48 hrs, read-out: Inhibitory Activities: IC50, breast MCF-7. The class given is cell-based. As to the method: as §4, §5
Data set [8] relates to human pancreatic adenocarcinoma cancer cell line BxPC-3. As to the kind of experiment: MTT assay, pancreas BxPC-3. Format: cell-based. The note with it: 48 hrs, read-out: Inhibitory Activities: IC50, pancreas BxPC-3. The method, then:
as §4, §5

The subject of the next data set is leukemia P388. As to the kind of experiment: Cancer cell line growth inhibition, leukemia P388. Format: cell-based, murine. The note with it: Mus musculus, read-out: Inhibitory Activities: IC50, leukemia P388.
A further data set relates to colon KM20L2. As to the kind of experiment: Cancer cell line growth inhibition, colon KM20L2. Format: cell-based. Conditions: Homo sapiens, KM-20L2; read-out: Inhibitory Activities: IC50, colon KM20L2.
For the next data set, the system named is CNS SF-268. The experiment in a line: Cancer cell line growth inhibition, CNS SF-268. Format: cell-based. Conditions: Homo sapiens, read-out: Inhibitory Activities: IC50, CNS SF-268.

The text below walks through data of patent US8703792B2, “C-1 analogs of pancratistatin and 7-deoxypancratistatin and processes for their preparation” (Brock University, priority 2008, dated 2014).

In brackets after ≈: the same amount, converted by molar mass. Entries after “also recorded” stand apart in the source; their conditions may differ.

As usually defined, the melting point is the temperature of the solid-liquid transition. By IC50 is commonly meant the concentration that inhibits the measured activity by half. In the case of `CC(=O)OC[C@H]1[C@H](O)[C@@H](O)[C@@H](O)[C@@H]2NC(=O)c3cc4c(cc3[C@@H]12)OCO4` [I(c), ((1S,2S,3R,4S,4aR,11bR)-2,3,4-trihydroxy-6-oxo-1,2,3,4,4a,5,6,11b-octahydro-[1,3]dioxolo[4,5-j]phenanthridin-1-yl)methyl acetate], the melting point was over 200 °C. Further, in the data set on SH-SY5Y cells, the Apoptotic morphology entry is “Apoptotic morphology was observed” and the EC50 is 500 nM. In data set [1], the IC50 turned out to be 0.183 µg/mL. For the same molecule, the IC50 in data set [2] worked out at 0.183 µg/mL. Also, the “induction of apoptosis in non-cancerous cells” value in data set [3] is given as “did not induce apoptosis; also recorded: does not induce apoptosis”. Moreover, the IC50 in [4] worked out at 0.37 µg/mL. The “induction of apoptosis in non-cancerous cells” value in data set [5] is “did not induce apoptosis; also recorded: does not induce apoptosis”. The IC50 in data set [6] stood at 0.11 µg/mL. Also, in the data set on Jurkat cells, the Apoptotic morphology result is “Apoptotic morphology was observed” and the EC50 worked out at 500 nM. In data set [7], the IC50 stood at 0.29 µg/mL. Besides, in data set [8], the IC50 turned out to be 0.11 µg/mL.
Take `O=C1N[C@H]2[C@H](O)[C@H](O)[C@@H](O)[C@H](O)[C@@H]2c2cc3c(cc21)OCO3` [Compound 4, 7-deoxypancratistatin]: the IC50 with leukemia P388 was 0.44 µg/mL (≈ 1.42 µM); in the data set with colon KM20L2 it was 0.22 µg/mL (≈ 0.711 µM); in [6] it was 0.29 µg/mL (≈ 0.938 µM).
`O=C1N[C@H]2[C@H](O)[C@H](O)[C@@H](O)[C@H](CO)[C@@H]2c2cc3c(cc21)OCO3` [I(d), (1S,2S,3R,4S,4aR,11bR)-2,3,4-trihydroxy-1-(hydroxymethyl)-1,2,3,4,4a, 5-hexahydro-[1,3]dioxolo[4,5-j]phenanthridin-6(11bH)-one] had a melting point of over 200 °C. Also, in the data set on SH-SY5Y cells, the Apoptotic morphology entry was “Apoptotic morphology was observed” and the EC50 was determined as 10000 nM. Further, the IC50 in data set [1] is 1.61 µg/mL (≈ 5 µM). The IC50 in data set [2] was found to be 1.61 µg/mL (≈ 5 µM). Also, the concentration for half-maximal inhibition (IC50) in [4] was found to be 0.26 µg/mL (≈ 0.804 µM). Besides, the IC50 in data set [6] turned out to be 0.09 µg/mL (≈ 0.278 µM). Also, in the data set on Jurkat cells, the Apoptotic morphology result is recorded as “Apoptotic morphology was observed” and the EC50 came to 1000 nM. For the same molecule, in [7], the IC50 was 0.65 µg/mL (≈ 2.01 µM). The IC50 in data set [8] turned out to be 0.19 µg/mL (≈ 0.588 µM).
In the case of `COC(=O)[C@H]1[C@H](O)[C@@H](O)[C@@H](O)[C@@H]2NC(=O)c3cc4c(cc3[C@H]21)OCO4`, the melting point is over 200 °C.
In the case of `O=C1N[C@H]2[C@H](O)[C@H](O)[C@@H](O)[C@H](O)[C@@H]2c2cc3c(c(O)c21)OCO3` [Compound 1, pancratistatin], the IC50 in the data set on CNS SF-268 turned out to be 0.017 µg/mL (≈ 0.0523 µM); in the data set on leukemia P388, 0.039 µg/mL (≈ 0.12 µM); in [1] it was 0.163 µg/mL (≈ 0.501 µM); in data set [2], 0.163 µg/mL (≈ 0.501 µM); in data set [4] it was 0.016 µg/mL (≈ 0.0492 µM); in the data set on colon KM20L2 it was 0.062 µg/mL (≈ 0.191 µM). The 50% inhibitory concentration (IC50) was determined as 0.048 µg/mL (≈ 0.148 µM) in data set [6], 0.032 µg/mL (≈ 0.0984 µM) in [7] and 0.028 µg/mL (≈ 0.0861 µM) in data set [8].
